The record followed here is ChEMBL document CHEMBL1130901, “Halohydrin analogues of cryptophycin 1: synthesis and biological activity” (Bioorg Med Chem Lett, 1998).

Where only a bound is given, the exact number is not on record here.

Series [1] in a line: Half life in phosphate buffer at pH 7.4. The format is ADME.
Series [2] is described as follows: Half life in PEM buffer at pH 7.4. The format is ADME.
Series [3] can be described thus: Tested in vitro for the concentration that reduces the amount of pelleted protein by 50% in microtubule assembly assay. The format is functional.

One may read the half-life as the time needed for the level to fall by half in the phase considered. Higher therefore signals slow decline. As to `COc1ccc(C[C@H]2NC(=O)/C=C/C[C@@H]([C@H](C)[C@@H](O)[C@@H](Br)c3ccccc3)OC(=O)[C@H](CC(C)C)OC(=O)[C@H](C)CNC2=O)cc1Cl`, the values for the half-life in series [1] and in series [2] were 11 min and 3.7 min, respectively.

For `COc1ccc(C[C@H]2NC(=O)/C=C/C[C@@H]([C@H](C)[C@@H](O)[C@@H](Cl)c3ccccc3)OC(=O)[C@H](CC(C)C)OC(=O)[C@H](C)CNC2=O)cc1Cl`, the ED50 in series [3] is 7.5 mM. Also, the half-life in series [1] was 660 min; in series [2], 75 min.

For the compound `COc1ccc(C[C@H]2NC(=O)/C=C/C[C@@H]([C@H](C)[C@@H](O)[C@@H](I)c3ccccc3)OC(=O)[C@H](CC(C)C)OC(=O)[C@H](C)CNC2=O)cc1Cl`, the half-life in series [1] was 2.5 min; in series [2] it was under 1 min.
